Measured values from patent US20050165082A1, “Methods of treating vasomotor symptoms” (Wyeth, priority 2003, published 2005).
“Also recorded” adds a separate entry of the source.

How the values were obtained:
[1] = test system: tail skin temperature in ovariectomized rats; assay: OVX-induced thermoregulatory dysfunction telemetry model (TST); format: in vivo, rat; settings: 30 mg/kg intraperitoneal, 30 minutes prior to onset of dark cycle
Protocol: (§1) Dosing: All doses were prepared based on mg/kg. All compounds were administered intraperitoneally and dissolved and used at the following dosages: SSR149415 (V1b receptor antagonist, 3.0-30 mg/kg was dissolved in 5% DMSO in 5% Cremophor EL). SSR49059 (V1a receptor antagonist, 30 mg/kg was dissolved 10% DMSO/sterile H2O) and VPA-985 (V2 receptor antagonist, 30 mg/kg was dissolved 10% DMSO/sterile H2O). Naloxone (1.0 mg/kg was dissolved in sterile H2O) was injected subcutaneously.
Animals: Ovariectomized Sprague-Dawley rats (180-220 g) were obtained from a commercial vendor (Taconic, Germantown, N.Y.) and individually housed under 12 hours light/dark cycle in a room maintained at 25° C. […]
OVX-induced thermoregulatory dysfunction telemetry model: To determine the effect that test compounds had on thermoregulation, TST was monitored in ovariectomized rats by telemetry (6-7 rats/group). […] After a 7 day recovery period rats were administered a vehicle injection and TST monitored continuously for 12 hours (Day 1). Twenty-four hours later rats were administered either vehicle or test compound and TST monitored continuously for 12 hours (Day 2). […]
To analyze changes in TST induced by test compounds in the thermoregulatory dysfunction model a 2-day paradigm was used. […] On Day 2, test compound is administered and TST readings are recorded every 30 minutes as described above. […]

[2] = test system: naloxone-induced flush in morphine-dependent ovariectomized rats; assay: Morphine-dependent rat model: naloxone-induced flush, tail skin temperature (TST); format: in vivo
Protocol: as §1
Animals: Ovariectomized Sprague-Dawley rats (180-220 g) were obtained from a commercial vendor (Taconic, Germantown, N.Y.) and individually housed under 12 hours light/dark cycle in a room maintained at 25° C. Animals were provided with standard rat chow and water ad libitum.
Morphine-dependent model: Ovariectomized rats were injected once daily for 8-9 days with vehicle to minimize stress responses and then administered compound(s) on test day (10 rats/group). On day 4 of vehicle dosing, morphine dependence was induced by sc implantation of two slow-release morphine pellets (75 mg/pellet) in the dorsal scapular region. This model is based upon an established morphine-dependent naloxone-induced flush paradigm that is reversible by estrogen treatment (Katovich et al., Proceedings of the Society for Experimental Biology & Medicine, 1990. 193(2): p. 129-35). Four to six days after implantation, morphine withdrawal was induced with an opioid antagonist (naloxone) that causes a transient increase in TST. In a typical experiment, rats were administered their final dose of test compound 40 minutes prior to naloxone injection. Rats were mildly sedated with ketamine and a thermistor connected to a MacLab data acquisition system (CB Sciences, Dover, N.H.) was taped to the base of the tail. Tail skin temperature was then monitored continuously for 10 minutes to establish a baseline temperature. Naloxone was subsequently administered and TST was measured for an additional […] (total recording time 95 min).
Statistical analysis: To analyze changes in TST induced by naloxone in morphine-dependent rats, all data was analyzed using a two factors repeated measure. The factors were “treatment” and “time” (repeated). The model was fit to test whether there were significant differences in the responses between treatment groups. The data was analyzed at 5 minute intervals from 20 minutes (−20) prior to the naloxone administration (referred to as time 0) to 60 minutes after the treatment. Multiple comparisons (LSD p-values) among the treatment groups at each time point were used for the analysis, however, the changes in TST is greatest at 15 minutes post naloxone administration and this time point provides the best indicator of flush abatement. When appropriate estimation of the ED50 value was calculated. The ED50 value was determined using a log scale and the line was fit between the maximal (15 minutes post naloxone ΔTST) and minimal response (average baseline temperature prior to naloxone). The ED50 value is reported as the dose of test compound that abates 50% of the naloxone-induced flush.
Method used as described in the general method section under morphine-dependent rat model with the following exceptions: in the morphine-dependent model rats were injected intraperitoneally with vehicle (5% DMSO in 5% Cremophor EL) or SSR149415 (V1b receptor antagonist) which may be prepared as described in WO 01/55134, dissolved in 5% DMSO in 5% Cremophor EL and administered at 3.0 and 30 mg/kg 40 minutes prior to naloxone injection (FIGS. 1A and 1B). […] At the highest dose (30 mg/kg) tested antagonism of the V1b receptor produced a 60% abatement of the naloxone-induced flush. […]

[3] = 30 mg/kg intraperitoneal, 15 minutes post-naloxone

Compound | change in TST (ΔTST) relative to vehicle, active phase [1] | effect on naloxone-induced flush at maximal flush (ΔTST) ([2]; 3.0 mg/kg intraperitoneal, 15 minutes post-naloxone) | abatement of the naloxone-induced flush ([2]; 30 mg/kg intraperitoneal (highest dose), 40 minutes prior to naloxone) | effect on naloxone-induced flush at maximal flush (ΔTST) [2, 3] | changes in TST over time, naloxone-induced flush ([2]; 3.0 and 30 mg/kg intraperitoneal, 40 minutes prior to naloxone) | ED50 ([2]; Rattus norvegicus, ip, intraperitoneal, 40 minutes prior to naloxone, maximal flush, 15 minutes post-naloxone, read-out: ED50 value, abatement of naloxone-induced flush)
COc1ccc(S(=O)(=O)N2C(=O)C(c3ccccc3OC)(N3C[C@H](O)C[C@H]3C(=O)N(C)C)c3cc(Cl)ccc32)c(OC)c1 (stereo partly drawn) [SSR149415, (2S,4R)-1-[5-Chloro-1-[(2,4-dimethoxyphenyl)-sulfonyl]-3-(2-methoxy-phenyl)-2-oxo-2,3-dihydro-1H-indol-3-yl]-4-hydroxy-N,N-dimethyl-2-pyrrolidine carboxamide] | significant decrease in ΔTST; also recorded: able to restore normal thermoregulation; also recorded: significantly and transiently decreased TST | no effect | 60% | significantly and dose-dependently abated the naloxone-induced flush | dose-dependently abates the naloxone-induced flush | 12.1 mg/kg
COc1ccc(S(=O)(=O)N2c3ccc(Cl)cc3[C@](O)(c3ccccc3Cl)[C@@H]2C(=O)N2CCC[C@H]2C(N)=O)cc1OC [SR49059] | – | – | – | lack efficacy in attenuating the naloxone-induced flush; also recorded: failed to abate the naloxone-induced flush | – | –
Cc1ccc(F)cc1C(=O)Nc1ccc(C(=O)N2Cc3cccn3Cc3ccccc32)c(Cl)c1 [VPA-985] | – | – | – | lack efficacy in attenuating the naloxone-induced flush; also recorded: failed to abate the naloxone-induced flush | – | –
